Measurements taken from patent US20020155518A1, “Method of detecting compounds that control fungal diseases via effects on sporulation” (priority 2000, published 2002).

Key:
[1] = test system: Rice Blast (Magnaporthe grisea); type: in vivo; conditions: foliar spray before inoculation, vs untreated inoculated controls
[2] = test system: Wheat Powdery Mildew (Blumeria [Erysiphe] graminis f.sp. tritici); conditions: in vivo; note: key: '+++' =high control; '++' =moderate control; '+' =low control; '0'=no control
[3] = test system: Leptosphaeria (Septoria) nodorum; experiment: Protectant foliar spray test against wheat L. nodorum blotch; type: in vivo; conditions: wheat, foliar spray before inoculation; vs untreated inoculated controls; note: key: '+++' =high control; '++' =moderate control; '+' =low control; '0'=no control
[4] = test system: Apple Scab (Venturia inaequalis); experiment: Protectant foliar spray test against apple scab; type: in vivo; conditions: apple seedlings, foliar spray before inoculation; vs untreated inoculated controls; note: key: '+++' =high control; '++' =moderate control; '+' =low control; '0'=no control

Row | Compound | Level of Plant Disease Control, Rice Blast [1] | Level of Plant Disease Control, Wheat Powdery Mildew [2] | Level of Plant Disease Control, Wheat L. nodorum [3] | Level of Plant Disease Control, Apple Scab [4]
1 | COc1cc(C(=O)c2c(Cl)cccc2Cl)c(C)cc1OC1CCCC1 [K, [4-(cyclopentyloxy)-5-methoxy-2-methylphenyl](2,6-dichlorophenyl)methanone] | 0 | 0 | +++ | 
2 | COc1cc(C)c(C(=O)c2c(C)ccc3ccccc23)c(OC)c1OC [F, (2,3,4-trimethoxy-6-methylphenyl)(2-methyl-1-naphthalenyl)methanone] | ++ | +++ | 0 | 0
3 | COc1cc(C)c(C(=O)c2c(C)cccc2C)c(OC)c1OC [L, (2,6-dimethylphenyl)(2,3,4-trimethoxy-6-methylphenyl)methanone] | 0 | +++ | 0 | 0
4 | COc1cc(C)c(C(=O)c2c(OC)ccc(Br)c2C)c(OCc2ccccc2C)c1OC [AA, (3-bromo-6-methoxy-2-methyiphenyl)[3,4-dimethoxy-6-methyl-2-[(2-methylphenyl)methoxy]phenyl]methanone] | 0 | +++ | 0 | 0
5 | COc1cc(C)c(C(=O)c2c(Cl)cccc2Cl)c(OCc2ccc(F)cc2)c1OC [D, (2,6-dichlorophenyl)[2-[(4-fluorophenyl)methoxy]-3,4-dimethoxy-6-methylphenyl]methanone] |  | +++ |  | 
6 | CCCCCOc1c(OC)cc(C)c(C(=O)c2c(OC)ccc(C)c2Cl)c1OC [P, (2-chloro-6-methoxy-3-methylphenyl)[2,4-dimethoxy-6-methyl-3-(pentyloxy)phenyl]methanone] | ++ | +++ | 0 | 0
7 | COc1cc(C)c(C(=O)c2c(Cl)cccc2OC)c(OCc2cccc(C)c2)c1OC [I, (2-chloro-6-methoxyphenyl)[3,4-dimethoxy-6-methyl-2-[(3-methylphenyl)methoxy]phenyl]methanone] | + | +++ | 0 | ++
8 | CCCOc1c(OC)cc(C)c(C(=O)c2c(OC)ccc(Br)c2C)c1OCc1ccc(C(F)(F)F)cc1 [CC, (3-bromo-6-methoxy-2-methylphenyl)[4-methoxy-6-methyl-3-propoxy-2-[[4-(trifluoromethyl)phenyl]methoxy]phenyl]methanone] | 0 | +++ | 0 | 0
9 | COc1cc(C)c(C(=O)c2c(C)cccc2C)c(OCc2c(F)cc(F)cc2F)c1OC [H, [3,4-dimethoxy-6-methyl-2-[(2,4,6-trifluorophenyl)methoxy]phenyl](2,6-dimethylphenyl)methanone] | 0 | +++ | 0 | 0
10 | CCCCOc1c(OC)cc(C)c(C(=O)c2c(Cl)cccc2Cl)c1OCCCC [B, (2,3-dibutoxy-4-methoxy-6-methylphenyl)(2,6-dichlorophenyl)methanone] | 0 | +++ | 0 | 0
11 | CCC(=O)Oc1c(OC)c(OC)cc(C)c1C(=O)c1c(Cl)cccc1Cl [W, (2,6-dichlorophenyl)[3,4-dimethoxy-6-methyl-2-(1-oxopropoxy)phenyl]methanone] | +++ | +++ | 0 | +++
12 | CCCOc1c(OC)cc(C)c(C(=O)c2c(OC)ccc(Br)c2C)c1OCc1ccc(C(C)(C)C)cc1 [BB, (3-bromo-6-methoxy-2-methylphenyl)[4-methoxy-6-methyl-3-propoxy-2-[[4-(1,1-dimethylethyl)phenyl]methoxy]phenyl]methanone] | 0 | +++ | 0 | 0
13 | COc1cc(C)c(C(=O)c2c(OC)ccc(Cl)c2C)c(OC)c1OC [R, (3-chloro-6-methoxy-2-methylphenyl)(2,3,4-trimethoxy-6-methylphenyl)methanone] | ++ | +++ | 0 | 0
14 | COc1cc(C)c(C(=O)c2c(C)ccc3ccccc23)c(OCc2ccccc2F)c1OC [X, [3,4-dimethoxy-6-methyl-2-[(2-fluorophenyl)methoxy]phenyl](2-methyl-1-naphthalenyl)methanone] | 0 | +++ | 0 | 0
15 | COc1cc(C)c(C(=O)c2c(OC)ccc(Br)c2C)c(OCc2ccc(Cl)cc2)c1OC [EE, (3-bromo-6-methoxy-2-methylphenyl)[3,4-dimethoxy-6-methyl-2-[(4-chlorophenyl)methoxy]phenyl]methanone] | 0 | +++ | 0 | 0
16 | COc1cc(C)c(C(=O)c2c(C)ccc(Cl)c2C)c(OC)c1OC [Q, (3-chloro-2,6-dimethylphenyl)(2,3,4-trimethoxy-6-methylphenyl)methanone] | ++ | +++ | 0 | +
17 | COc1cc(C)c(C(=O)c2c(OC)ccc(Br)c2C)c(OCc2cccc(C)c2)c1OC [Compound S, (3-bromo-6-methoxy-2-methylphenyl)[3,4-dimethoxy-6-methyl-2-[(3-methylphenyl)methoxy]phenyl]methanone] |  | +++ |  | 
18 | COc1cc(C)c(C(=O)c2c(Cl)cccc2Cl)c(OCc2ccccc2F)c1OC [V, (2,6-dichlorophenyl)[2-[(2-fluorophenyl)methoxy]-3,4-dimethoxy-6-methylphenyl]methanone] | ++ | +++ | 0 | 0
19 | COc1cc(C)c(C(=O)c2c(C)cccc2OC)c(OC)c1OC [G, (2-methoxy-6-methylphenyl)(2,3,4-trimethoxy-6-methylphenyl)methanone] | 0 | +++ | 0 | 0
20 | CCCOc1c(OC)cc(C)c(C(=O)c2c(OC)ccc(Cl)c2C)c1O [DD, (3-chloro-6-methoxy-2-methylphenyl)(2-hydroxy-4-methoxy-6-methyl-3-propoxyphenyl)methanone] | 0 | +++ | 0 | 0
21 | COc1cc(C)c(C(=O)c2c(OC)ccc(Br)c2Cl)c(OC)c1OC [J, (3-bromo-2-chloro-6-methoxyphenyl)(2,3,4-trimethoxy-6-methylphenyl)methanone] | 0 | +++ | 0 | +
22 | COc1cc(C)c(C(=O)c2c(C)cccc2C)c(OCc2ccccc2)c1OC [O, [3,4-dimethoxy-6-methyl-2-(phenylmethoxy)phenyl](2,6-dimethylphenyl)methanone] | ++ | +++ | 0 | 0
23 | COc1cc(C)c(C(=O)c2c(C)cccc2C)c(OCc2cccc(C)c2)c1OC [Compound E, [3,4-dimethoxy-6-methyl-2-[(3-methylphenyl)methoxy]phenyl](2,6-dimethylphenyl)methanone] |  | +++ |  | 
24 | COc1cc(C)c(C(=O)c2c(OC)ccc(Br)c2C)c(OCc2ccccc2F)c1OC [C, (3-bromo-6-methoxy-2-methylphenyl)[3,4-dimethoxy-6-methyl-2-[(2-fluorophenyl)methoxy]phenyl]methanone] | ++ | +++ |  | 0
